From PubChem BioAssay (NCI)
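Cells were grown in 96-well plates and exposed to each compound for 48 hours at five concentrations; endpoints were interpolated linearly between bracketing concentrations, or set to the highest concentration if not reached. Abbreviation: GI50, concentration required for 50% inhibition of growth. TGI is the concentration that stops growth completely.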

Columns and labels:
Assay in all cases: NCI tumour cell line growth inhibition, 48 h
786-0 renal = system: 786-0 renal
A498 renal = system: A498 renal
A549 NSCLC = system: A549 NSCLC
ACHN renal = system: ACHN renal
CAKI-1 renal = system: CAKI-1 renal
CCRF-CEM leukemia = system: CCRF-CEM leukemia
COLO 205 colon = system: COLO 205 colon
DLD-1 colon = system: DLD-1 colon
DMS 273 small cell lung = system: DMS 273 small cell lung
EKVX NSCLC = system: EKVX NSCLC
HCC-2998 colon = system: HCC-2998 colon
HCT-116 colon = system: HCT-116 colon
HCT-15 colon = system: HCT-15 colon
HL-60(TB) leukemia = system: HL-60(TB) leukemia
HOP-62 NSCLC = system: HOP-62 NSCLC
HOP-92 NSCLC = system: HOP-92 NSCLC
HT29 colon = system: HT29 colon
IGROV1 ovarian = system: IGROV1 ovarian
K-562 leukemia = system: K-562 leukemia
KM12 colon = system: KM12 colon
KM20L2 colon = system: KM20L2 colon
LOX IMVI melanoma = system: LOX IMVI melanoma
LXFL 529 NSCLC = system: LXFL 529 NSCLC
M14 melanoma = system: M14 melanoma
M19-MEL melanoma = system: M19-MEL melanoma
MALME-3M melanoma = system: MALME-3M melanoma
MOLT-4 leukemia = system: MOLT-4 leukemia
NCI-H226 lung = system: NCI-H226 lung
NCI-H23 lung = system: NCI-H23 lung
NCI-H460 lung = system: NCI-H460 lung
NCI-H522 lung = system: NCI-H522 lung
OVCAR-3 ovarian = system: OVCAR-3 ovarian
OVCAR-4 ovarian = system: OVCAR-4 ovarian
OVCAR-8 ovarian = system: OVCAR-8 ovarian
RPMI-8226 leukemia = system: RPMI-8226 leukemia
RXF 393 renal = system: RXF 393 renal
RXF-631 renal = system: RXF-631 renal
SF-295 CNS = system: SF-295 CNS
SF-539 CNS = system: SF-539 CNS
SK-MEL-2 melanoma = system: SK-MEL-2 melanoma
SK-MEL-28 melanoma = system: SK-MEL-28 melanoma
SK-MEL-5 melanoma = system: SK-MEL-5 melanoma
SK-OV-3 ovarian = system: SK-OV-3 ovarian
SN12C renal = system: SN12C renal
SNB-19 CNS = system: SNB-19 CNS
SNB-75 CNS = system: SNB-75 CNS
SNB-78 CNS = system: SNB-78 CNS
SR leukemia = system: SR leukemia
SW-620 colon = system: SW-620 colon
TK-10 renal = system: TK-10 renal
U251 CNS = system: U251 CNS
UACC-257 melanoma = system: UACC-257 melanoma
UACC-62 melanoma = system: UACC-62 melanoma
UO-31 renal = system: UO-31 renal
XF 498 CNS = system: XF 498 CNS

CCC[CH2][Sn]1([CH2]CCC)[O]C(c2ccccn2)S(=O)(=O)[O]1 (stereo not given)
GI50 (786-0 renal): 2.12 µM | TGI (786-0 renal): 4.11 µM | GI50 (A498 renal): 18.1 µM | TGI (A498 renal): 32.1 µM | GI50 (A549 NSCLC): 20 µM | TGI (A549 NSCLC): 34.3 µM | GI50 (ACHN renal): 7.88 µM | TGI (ACHN renal): 20 µM | GI50 (CAKI-1 renal): 1.58 µM | TGI (CAKI-1 renal): 3.63 µM | GI50 (CCRF-CEM leukemia): 1.54 µM | TGI (CCRF-CEM leukemia): 4.19 µM | GI50 (COLO 205 colon): 2.1 µM | TGI (COLO 205 colon): 4.54 µM | GI50 (DLD-1 colon): 3.31 µM | TGI (DLD-1 colon): 12.7 µM | GI50 (DMS 273 small cell lung): 3.29 µM | TGI (DMS 273 small cell lung): 15.5 µM | GI50 (EKVX NSCLC): 2.29 µM | TGI (EKVX NSCLC): 5.61 µM | GI50 (HCC-2998 colon): 4.63 µM | TGI (HCC-2998 colon): 18.3 µM | GI50 (HCT-116 colon): 11 µM | TGI (HCT-116 colon): 22.9 µM | GI50 (HCT-15 colon): 1.79 µM | TGI (HCT-15 colon): 3.5 µM | GI50 (HL-60(TB) leukemia): 2.14 µM | TGI (HL-60(TB) leukemia): 5.04 µM | GI50 (HOP-62 NSCLC): 28.1 µM | TGI (HOP-62 NSCLC): 43 µM | GI50 (HOP-92 NSCLC): 1.41 µM | TGI (HOP-92 NSCLC): 2.86 µM | GI50 (HT29 colon): 3.79 µM | TGI (HT29 colon): 12.2 µM | GI50 (IGROV1 ovarian): 6.47 µM | TGI (IGROV1 ovarian): 20.3 µM | GI50 (K-562 leukemia): 2.14 µM | TGI (K-562 leukemia): 6.72 µM | GI50 (KM12 colon): 12.7 µM | TGI (KM12 colon): 26 µM | GI50 (KM20L2 colon): 6.65 µM | TGI (KM20L2 colon): 20.2 µM | GI50 (LOX IMVI melanoma): 1.64 µM | TGI (LOX IMVI melanoma): 3.07 µM | GI50 (LXFL 529 NSCLC): 1.54 µM | TGI (LXFL 529 NSCLC): 2.92 µM | GI50 (M14 melanoma): 3.57 µM | TGI (M14 melanoma): 11.2 µM | GI50 (M19-MEL melanoma): 4.1 µM | TGI (M19-MEL melanoma): 14.4 µM | GI50 (MALME-3M melanoma): 1.63 µM | TGI (MALME-3M melanoma): 3.27 µM | GI50 (MOLT-4 leukemia): 2.84 µM | TGI (MOLT-4 leukemia): 7.51 µM | GI50 (NCI-H226 lung): 16.2 µM | TGI (NCI-H226 lung): 30 µM | GI50 (NCI-H23 lung): 1.72 µM | TGI (NCI-H23 lung): 3.5 µM | GI50 (NCI-H460 lung): 16.8 µM | TGI (NCI-H460 lung): 30.4 µM | GI50 (NCI-H522 lung): 1.18 µM | TGI (NCI-H522 lung): 2.47 µM | GI50 (OVCAR-3 ovarian): 3.06 µM | TGI (OVCAR-3 ovarian): 11.6 µM | GI50 (OVCAR-4 ovarian): 6.86 µM | TGI (OVCAR-4 ovarian): 20.1 µM | GI50 (OVCAR-8 ovarian): 2.06 µM | TGI (OVCAR-8 ovarian): 4.79 µM | GI50 (RPMI-8226 leukemia): 2.23 µM | TGI (RPMI-8226 leukemia): 6.46 µM | GI50 (RXF 393 renal): 2.36 µM | TGI (RXF 393 renal): 3.95 µM | GI50 (RXF-631 renal): 1.3 µM | TGI (RXF-631 renal): 2.64 µM | GI50 (SF-295 CNS): 2.94 µM | TGI (SF-295 CNS): 8.26 µM | GI50 (SF-539 CNS): 1.74 µM | TGI (SF-539 CNS): 3.93 µM | GI50 (SK-MEL-2 melanoma): 1.7 µM | TGI (SK-MEL-2 melanoma): 3.22 µM | GI50 (SK-MEL-28 melanoma): 1.94 µM | TGI (SK-MEL-28 melanoma): 3.76 µM | GI50 (SK-MEL-5 melanoma): 12.5 µM | TGI (SK-MEL-5 melanoma): 25 µM | GI50 (SK-OV-3 ovarian): 16.8 µM | TGI (SK-OV-3 ovarian): 30.9 µM | GI50 (SN12C renal): 9.11 µM | TGI (SN12C renal): 21.1 µM | GI50 (SNB-19 CNS): 11.4 µM | TGI (SNB-19 CNS): 23.5 µM | GI50 (SNB-75 CNS): 2.53 µM | TGI (SNB-75 CNS): 7.26 µM | GI50 (SNB-78 CNS): 1.6 µM | TGI (SNB-78 CNS): 5.86 µM | GI50 (SR leukemia): 2.45 µM | TGI (SR leukemia): 6.62 µM | GI50 (SW-620 colon): 1.56 µM | TGI (SW-620 colon): 3.02 µM | GI50 (TK-10 renal): 2.54 µM | TGI (TK-10 renal): 5.84 µM | GI50 (U251 CNS): 2.96 µM | TGI (U251 CNS): 11.8 µM | GI50 (UACC-257 melanoma): 1.79 µM | TGI (UACC-257 melanoma): 3.29 µM | GI50 (UACC-62 melanoma): 1.84 µM | TGI (UACC-62 melanoma): 3.78 µM | GI50 (UO-31 renal): 13.6 µM | TGI (UO-31 renal): 26.6 µM | GI50 (XF 498 CNS): 2.08 µM | TGI (XF 498 CNS): 3.55 µM
